Source: patent US9890407B2, “Method for synthesizing cellulose in vitro” (University of Virginia Patent Foundation, priority 2013, dated 2018)

Test system: Rs BcsA-B complex
Experiment: Cellulose synthase sedimentation assay (3H-labeled water-insoluble cellulose, scintillation counting)
Type: biochemical, Rhodobacter sphaeroides
Settings: increasing nucleotide concentrations, 0.5 mM UDP-Glc, PL-reconstituted BcsA-B
Protocol: (FIG. 4A) Enzyme-coupled cellulose synthesis assays were performed as described in FIG. 3 in the absence or presence of 0.1 mg/ml E. coli BesZ. […] Inset: Radioactive sedimentation assay performed with ND-reconstituted BcsA-B synthesizing cellulose in the absence or presence of BcsZ. […] The obtained product is quantified relative to the polymer formed in the absence of any nucleoside diphosphate.
FIG. 9A-9B (also referred to as Example 1, Supplementary FIG. 3): Cation selectivity and pH optimum of cellulose synthase. (FIG. 9A) Cellulose synthesis reactions were performed in the presence of 20 mM of the indicated cations or in the absence of any additional divalent cations with and without addition of 20 mM EDTA. The activities are shown relative to the activity in the presence of magnesium. […] All activity assays were performed for 45 min at 37° C. with 1 μM PLs-reconstituted. Rs BcsA-B and by quantifying the accumulation of ^3H-labeled water insoluble cellulose as described.
Following incubation at 37° C. for 45 min, the polymerization reaction was terminated by addition of 2% SDS and the water-insoluble polymer was pelleted by centrifugation at 15,000 rpm at room temperature (RT). The obtained pellet was resuspended in 20 μL 50 mM Tris pH 7.5, 0.1 M NaCl and spotted at the origin of a descending Whatman-2MM chromatography paper, which was developed in an aqueous solution of 60% ethanol. For enzymatic degradation, the pellet was resuspended in 20 μL 50 mM sodium acetate pH 4.5 and 100 mM NaCl and was digested with 0.1 mg/ml of endo-β-1,4- or endo-β-1,3 glucanase from Aspergillus niger (TCI) or Trichoderma sp. (Megazyme), respectively. Following paper chromatography, the high molecular weight polymer retained at the origin was quantified by scintillation counting.
Following synthesis, the reactions were treated as described above.

Structure (SMILES)	inhibition of cellulose synthesis by nucleoside diphosphates
Nc1nc2c(ncn2[C@@H]2O[C@H](COP(=O)(O)OP(=O)(O)O)[C@@H](O)[C@H]2O)c(=O)[nH]1 [guanosine-diphosphate]	do not inhibit
Nc1ncnc2c1ncn2[C@@H]1O[C@H](COP(=O)(O)OP(=O)(O)O)[C@@H](O)[C@H]1O [adenosine-diphosphate]	do not inhibit
